From US5843449A, “Proteins and novel peptides derived from autoantigen for use in immunotherapy of autoimmune diseases” (Akzo Nobel N.V., priority 1996, dated 1998)
Read-outs that look alike come from different tables or passages of the source. Residues, ends and D or L forms follow the SMILES beside them.

Assays:
PBMC from RA patients = experiment: Proliferative responses of PBMC from RA patients (3H-thymidine); type: cell-based, human; settings: 10% autologous serum
Experimental: Peripheral blood mononuclear cells (PBMC) from patients who were diagnosed as suffering from RA according to the American Rheumatism Association (ARA) criteria (Arnett et al., Arthritis Rheum. 31:315, 1988) were collected.
(§1) PBMC obtained from heparinized venous peripheral blood were isolated by standard centrifugation on a Ficoll-Paque gradient. […] Cultures were incubated in a total volume of 210 μl for 7 days at 37° C. in a humidified atmosphere of 5% CO2. Cultures were pulsed during the last 18 hours with 0.25 μCi^3 H-thymidine.

DR4Dw14 HLA-DR molecules = experiment: HLA-DR peptide binding assay (competition with biotinylated marker peptide), DR4Dw14; parameters: species or system human; settings: pH = 5, 50 nM biotin-spacer-IHA(307-319)F marker peptide
[1] = biological target: T1, DR4Dw4 (DRB1*0401) HLA-DR molecules (Homo sapiens, UniProt P01903+P01911, A100K/A169T/F76Y/I96L/K127E/L162R/M171V/N62H/P40V/Q125Y/R42H/S133A/S149N/S66Y/V115G/V209L/W38E); experiment: HLA-DR peptide binding assay (competition with biotinylated marker peptide), DR4Dw4; settings: pH = 5, 50 nM biotin-spacer-IHA(307-319)F marker peptide
T1 construct: endogenous in cells; host or cells: BSM, EBV-transformed B-cell line

PBMC from healthy donors = experiment: Proliferative responses of PBMC from healthy donors (3H-thymidine); type: cell-based, human; settings: 10% autologous serum
Experimental: PBMC's from healthy donors carrying the DR4Dw4 (DRB1*0401) or the DR1 specificity were collected as a control.
as §1

**Q.** With CC(C)C[C@H](NC(=O)[C@@H](NC(=O)[C@H](Cc1ccccc1)NC(=O)[C@H](CO)NC(=O)[C@@H](N)CCCNC(=N)N)[C@@H](C)O)C(=O)N[C@@H](C)C(=O)N[C@@H](CO)C(=O)N[C@@H](CO)C(=O)N[C@@H](CCC(=O)O)C(=O)N[C@H](C(=O)NCC(=O)N[C@H](C(=O)NCC(=O)O)C(C)C)[C@@H](C)O [Peptide 2] (H-RSFTLASSETGVG-OH) as the molecule, how does the “Proliferative response, stimulation index (SI)” value (PBMC from RA patients; RA patient 191-03 (HR), disease state IV, peptide 10 μg/l) read?
**A.** 1

**Q.** What about the “Proliferative response, stimulation index (SI)” value (PBMC from RA patients; RA patient 191-03 (HR), disease state IV, peptide 100 μg/l) of the same molecule?
**A.** < 2

**Q.** And the “Proliferative response, stimulation index (SI)” value (PBMC from RA patients; RA patient 215-0 (HR), disease state III-IV, peptide 25 μg/l)?
**A.** 3

**Q.** And the “Proliferative response, stimulation index (SI)” value (PBMC from RA patients; RA patient 215-0 (HR), disease state III-IV, peptide 100 μg/l)?
**A.** 19

**Q.** What about the “Proliferative response, stimulation index (SI)” value (PBMC from RA patients; RA patient 240-0 (HR), disease state II-III, peptide 25 μg/l) of the same molecule?
**A.** 5

**Q.** What about the “Proliferative response, stimulation index (SI)” value (PBMC from RA patients; RA patient 240-0 (HR), disease state II-III, peptide 100 μg/l) of the same molecule?
**A.** 6

**Q.** And the “Proliferative response, stimulation index (SI)” value (PBMC from RA patients; RA patient 242-0 (HR), disease state I, peptide 25 μg/l)?
**A.** 4

**Q.** And the “Proliferative response, stimulation index (SI)” value (PBMC from RA patients; RA patient 243-0 (R), disease state III, peptide 10 μg/l)?
**A.** 1

**Q.** And the “Proliferative response, stimulation index (SI)” value (PBMC from RA patients; RA patient 243-0 (R), disease state III, peptide 100 μg/l)?
**A.** 6

**Q.** And the “Proliferative response, stimulation index (SI)” value (PBMC from RA patients; RA patient 247-0 (R), disease state III, peptide 10 μg/l)?
**A.** 1

**Q.** And the “Proliferative response, stimulation index (SI)” value (PBMC from RA patients; RA patient 247-0 (R), disease state III, peptide 100 μg/l)?
**A.** 2

**Q.** And the “Proliferative response, stimulation index (SI)” value (PBMC from RA patients; RA patient 248-0 (R), disease state III, peptide 10 μg/l)?
**A.** 1

**Q.** And the “Proliferative response, stimulation index (SI)” value (PBMC from RA patients; RA patient 248-0 (R), disease state III, peptide 100 μg/l)?
**A.** 1

**Q.** What about the “Proliferative response, stimulation index (SI)” value (PBMC from RA patients; RA patient 272-0 (HR), disease state III-IV, peptide 10 μg/l) of the same molecule?
**A.** < 1

**Q.** What about the “Proliferative response, stimulation index (SI)” value (PBMC from RA patients; RA patient 272-0 (HR), disease state III-IV, peptide 100 μg/l) of the same molecule?
**A.** < 1

**Q.** And the “Proliferative response, stimulation index (SI)” value (PBMC from RA patients; RA patient 273-0 (HR), disease state IV, peptide 10 μg/l)?
**A.** 7

**Q.** What about the “Proliferative response, stimulation index (SI)” value (PBMC from RA patients; RA patient 273-0 (HR), disease state IV, peptide 100 μg/l) of the same molecule?
**A.** 6

**Q.** And the “Proliferative response, stimulation index (SI)” value (PBMC from RA patients; RA patient 275-0 (HR), disease state III, peptide 10 μg/l)?
**A.** 2

**Q.** What about the “Proliferative response, stimulation index (SI)” value (PBMC from RA patients; RA patient 275-0 (HR), disease state III, peptide 100 μg/l) of the same molecule?
**A.** 9

**Q.** And the “Proliferative response, stimulation index (SI)” value (PBMC from RA patients; RA patient 276-0 (HR), disease state IV, burnt out, peptide 10 μg/l)?
**A.** 3

**Q.** And the “Proliferative response, stimulation index (SI)” value (PBMC from RA patients; RA patient 276-0 (HR), disease state IV, burnt out, peptide 100 μg/l)?
**A.** 1

**Q.** What about the “Proliferative response, stimulation index (SI)” value (PBMC from RA patients; RA patient 280-0 (HR), disease state IV, burnt out, peptide 10 μg/l) of the same molecule?
**A.** 1

**Q.** And the “Proliferative response, stimulation index (SI)” value (PBMC from RA patients; RA patient 280-0 (HR), disease state IV, burnt out, peptide 100 μg/l)?
**A.** 4

**Q.** What about the IC50 (DR4Dw14 HLA-DR molecules; DOT Blot, densitometer, read-out: ^R IC50, DR4Dw14, DOT Blot) of the same molecule?
**A.** 190 nM

**Q.** What about the IC50 (DR4Dw14 HLA-DR molecules; SDS-PAGE, visual inspection, read-out: ^R IC50, DR4Dw14, SDS-PAGE) of the same molecule?
**A.** 200 nM

**Q.** And the IC50 ([1]; DOT Blot, densitometer, read-out: ^R IC50, DR4Dw4, DOT Blot)?
**A.** 80 nM

**Q.** And the IC50 ([1]; SDS-PAGE, visual inspection, read-out: ^R IC50, DR4Dw4, SDS-PAGE)?
**A.** 40 nM

**Q.** What about the “Proliferative response, stimulation index (SI)” value (PBMC from healthy donors; healthy donor 155-03 (NR), peptide 10 μg/ml) of the same molecule?
**A.** 1

**Q.** What about the “Proliferative response, stimulation index (SI)” value (PBMC from healthy donors; healthy donor 155-03 (NR), peptide 100 μg/ml) of the same molecule?
**A.** 1

**Q.** And the “Proliferative response, stimulation index (SI)” value (PBMC from healthy donors; healthy donor 156-03 (NR), peptide 10 μg/ml)?
**A.** 1

**Q.** What about the “Proliferative response, stimulation index (SI)” value (PBMC from healthy donors; healthy donor 156-03 (NR), peptide 100 μg/ml) of the same molecule?
**A.** < 1

**Q.** What about the “Proliferative response, stimulation index (SI)” value (PBMC from healthy donors; healthy donor 157-03 (NR), peptide 10 μg/ml) of the same molecule?
**A.** < 2

**Q.** What about the “Proliferative response, stimulation index (SI)” value (PBMC from healthy donors; healthy donor 157-03 (NR), peptide 100 μg/ml) of the same molecule?
**A.** < 2

**Q.** What about the “Proliferative response, stimulation index (SI)” value (PBMC from healthy donors; healthy donor 157-04 (R), peptide 10 μg/ml) of the same molecule?
**A.** 1

**Q.** And the “Proliferative response, stimulation index (SI)” value (PBMC from healthy donors; healthy donor 157-04 (R), peptide 100 μg/ml)?
**A.** < 1

**Q.** And the “Proliferative response, stimulation index (SI)” value (PBMC from healthy donors; healthy donor 168-03 (NR), peptide 10 μg/ml)?
**A.** < 1

**Q.** What about the “Proliferative response, stimulation index (SI)” value (PBMC from healthy donors; healthy donor 168-03 (NR), peptide 100 μg/ml) of the same molecule?
**A.** < 1

**Q.** And the “Proliferative response, stimulation index (SI)” value (PBMC from healthy donors; healthy donor 168.02 (NR), peptide 10 μg/ml)?
**A.** < 2

**Q.** What about the “Proliferative response, stimulation index (SI)” value (PBMC from healthy donors; healthy donor 168.02 (NR), peptide 100 μg/ml) of the same molecule?
**A.** < 1

**Q.** And the “Proliferative response, stimulation index (SI)” value (PBMC from healthy donors; healthy donor 169-02 (NR), peptide 10 μg/ml)?
**A.** 1

**Q.** And the “Proliferative response, stimulation index (SI)” value (PBMC from healthy donors; healthy donor 169-02 (NR), peptide 100 μg/ml)?
**A.** 1

**Q.** What about the “Proliferative response, stimulation index (SI)” value (PBMC from healthy donors; healthy donor 230-01 (NR), peptide 10 μg/ml) of the same molecule?
**A.** 1

**Q.** What about the “Proliferative response, stimulation index (SI)” value (PBMC from healthy donors; healthy donor 230-01 (NR), peptide 100 μg/ml) of the same molecule?
**A.** 1

**Q.** What about the “Proliferative response, stimulation index (SI)” value (PBMC from healthy donors; healthy donor 235-0 (NR), peptide 10 μg/ml) of the same molecule?
**A.** 1

**Q.** And the “Proliferative response, stimulation index (SI)” value (PBMC from healthy donors; healthy donor 235-0 (NR), peptide 100 μg/ml)?
**A.** < 2

**Q.** And the “Proliferative response, stimulation index (SI)” value (PBMC from healthy donors; healthy donor 235-01 (NR), peptide 10 μg/ml)?
**A.** < 1

**Q.** And the “Proliferative response, stimulation index (SI)” value (PBMC from healthy donors; healthy donor 235-01 (NR), peptide 100 μg/ml)?
**A.** < 1

**Q.** And the “Proliferative response, stimulation index (SI)” value (PBMC from healthy donors; healthy donor 236-01 (NR), peptide 10 μg/ml)?
**A.** 1

**Q.** And the “Proliferative response, stimulation index (SI)” value (PBMC from healthy donors; healthy donor 236-01 (NR), peptide 100 μg/ml)?
**A.** 1

**Q.** What about the “Proliferative response, stimulation index (SI)” value (PBMC from healthy donors; healthy donor 237-0 (NR), peptide 10 μg/ml) of the same molecule?
**A.** < 2

**Q.** What about the “Proliferative response, stimulation index (SI)” value (PBMC from healthy donors; healthy donor 237-0 (NR), peptide 100 μg/ml) of the same molecule?
**A.** < 1

**Q.** And the “Proliferative response, stimulation index (SI)” value (PBMC from healthy donors; healthy donor 237-01 (NR), peptide 10 μg/ml)?
**A.** 1

**Q.** And the “Proliferative response, stimulation index (SI)” value (PBMC from healthy donors; healthy donor 237-01 (NR), peptide 100 μg/ml)?
**A.** 1

**Q.** And the “Proliferative response, stimulation index (SI)” value (PBMC from healthy donors; healthy donor 238-01 (NR), first line so labelled, peptide 10 μg/ml)?
**A.** 1

**Q.** And the “Proliferative response, stimulation index (SI)” value (PBMC from healthy donors; healthy donor 238-01 (NR), first line so labelled, peptide 100 μg/ml)?
**A.** < 1

**Q.** What about the “Proliferative response, stimulation index (SI)” value (PBMC from healthy donors; healthy donor 238-01 (NR), second line so labelled, peptide 10 μg/ml) of the same molecule?
**A.** 1

**Q.** What about the “Proliferative response, stimulation index (SI)” value (PBMC from healthy donors; healthy donor 238-01 (NR), second line so labelled, peptide 100 μg/ml) of the same molecule?
**A.** 1

**Q.** What about the “Proliferative response, stimulation index (SI)” value (PBMC from healthy donors; healthy donor 241-0 (NR), peptide 10 μg/ml) of the same molecule?
**A.** 1

**Q.** And the “Proliferative response, stimulation index (SI)” value (PBMC from healthy donors; healthy donor 241-0 (NR), peptide 100 μg/ml)?
**A.** < 1

**Q.** What about the “Proliferative response, stimulation index (SI)” value (PBMC from healthy donors; healthy donor 241-01 (R), peptide 10 μg/ml) of the same molecule?
**A.** < 1

**Q.** What about the “Proliferative response, stimulation index (SI)” value (PBMC from healthy donors; healthy donor 241-01 (R), peptide 100 μg/ml) of the same molecule?
**A.** < 1
